Laboratory results as given in patent publication US20110287089A1, “USE OF A SACCHAROMYCES CEREVISIAE MITOCHONDRIAL NUCLEIC ACIDS FRACTION FOR IMMUNE STIMULATION” (priority 2009, published 2011).
Peptide text beside a SMILES is read from it. * marks the point of attachment. X1 = CCCCCCCCCCCCCCCC(=O)OCC(C*)OC(=O)CCCCCCCCCCCCCCC

Key:
hTLR5 = target: T1, hTLR5 (Homo sapiens, UniProt O60602); type: cell-based
T1 construct: host or cells: HEK-293 (293/hTLR5, clone hTLR 5-luc)
Method: (§1) Cells: Human embryonic kidney cells 293 (HEK) were stably transfected with plasmids allowing for the constitutive expression of one or two Toll like Receptors of human origin (hTLR). The resulting cell lines 293/hTLR2-CD14, 293/hTLR3, 293/hTLR4-MD2-CD14, 293/hTLR5, 293/hTLR2/6, 293/hTLR7, 293/hTLR8 and 293/hTLR9 were purchased from InvivoGen (San Diego, Calif., USA). All cell lines were cultivated in the presence of Blasticidin S (10 μg/ml, InvivoGen) in Dulbecco's […] Eagle's medium (DMEM) supplemented with 10% fetal calf serum, 40 μg/ml Gentamycin, 2 mM Glutamine, 1 mM sodium pyruvate (Sigma) and 1× Non Essential Amino acids (NEAA, Gibco). In the case of 293/hTLR2-CD14 and 293/hTLR4-MD2-CD14 Hygromycin B was added to a concentration of 100 μg/ml. All eight cell lines were stably transfected with the NF-kB-inducible reporter plasmid pNiFty (InvivoGen). pNiFty encodes the firefly luciferase gene under control of an engineered ELAM1 promoter which combines five NF-kB sites and the proximal ELAM promoter. Stable transfectants were selected in the presence of 100 μg/ml Zeocin (InvivoGen). The emerging clones “hTLRx-luc” were characterized with respect to EC50 and fold-induction to the respective control TLR ligands. Clones with lowest EC50 and high fold inductions and good/acceptable growth behaviour were chosen.
(§2) In vitro TLR tests—method: Cells diluted in DMEM supplemented with 2% fetal calf serum, 40 μg/ml Gentamycin, 2 mM Glutamine, 1 mM sodium pyruvate (Sigma) and 1×MEM non essential amino acids (NEAA, Gibco) were seeded in 96 well plates. The next day. NA fraction (stock: 1 mg/ml) either alone or in combination with Lipofectin® (as described in Example 1) was added at a concentration of 16 μg/ml and 3-fold serial dilutions thereof. As positive controls, the cell lines were stimulated with a defined amount of their respective reference ligands. The day after stimulation (18-20 hours) later, cells were lysed in 100 μl buffer containing 125 mM Tris pH 7.8, 10 mM EDTA, 5 mM DTT and 5% Triton X-100. Firefly luciferase activity in 10 μl lysate was quantified by integrate measurement of flash luminescence over 1 sec (LB96 P Microlumat, Berthold) after addition of 50 μl luciferase revelation buffer (1× luciferase revelation buffer: 20 mM Tris pH 7.8, 1.07 mM MgCl2, 2.7 mM MgSO4, 0.1 mM EDTA, 33.3 mM DTT, 470 μM luciferine 530 μM ATP and 270 μM CoEnzyme A). The resulting relative light units (RLU) were expressed as percentage of induction compared to the control ligand and analyzed with the Graph Pad Prism 4 software using an equation for sigmoid dose response (determination of EC50).

hTLR3 = target: T2, hTLR3 (Homo sapiens, UniProt O15455); type: cell-based
T2 construct: host or cells: HEK-293 (293/hTLR3, clone hTLR 3-luc)
T2 sequence (O15455 24-904): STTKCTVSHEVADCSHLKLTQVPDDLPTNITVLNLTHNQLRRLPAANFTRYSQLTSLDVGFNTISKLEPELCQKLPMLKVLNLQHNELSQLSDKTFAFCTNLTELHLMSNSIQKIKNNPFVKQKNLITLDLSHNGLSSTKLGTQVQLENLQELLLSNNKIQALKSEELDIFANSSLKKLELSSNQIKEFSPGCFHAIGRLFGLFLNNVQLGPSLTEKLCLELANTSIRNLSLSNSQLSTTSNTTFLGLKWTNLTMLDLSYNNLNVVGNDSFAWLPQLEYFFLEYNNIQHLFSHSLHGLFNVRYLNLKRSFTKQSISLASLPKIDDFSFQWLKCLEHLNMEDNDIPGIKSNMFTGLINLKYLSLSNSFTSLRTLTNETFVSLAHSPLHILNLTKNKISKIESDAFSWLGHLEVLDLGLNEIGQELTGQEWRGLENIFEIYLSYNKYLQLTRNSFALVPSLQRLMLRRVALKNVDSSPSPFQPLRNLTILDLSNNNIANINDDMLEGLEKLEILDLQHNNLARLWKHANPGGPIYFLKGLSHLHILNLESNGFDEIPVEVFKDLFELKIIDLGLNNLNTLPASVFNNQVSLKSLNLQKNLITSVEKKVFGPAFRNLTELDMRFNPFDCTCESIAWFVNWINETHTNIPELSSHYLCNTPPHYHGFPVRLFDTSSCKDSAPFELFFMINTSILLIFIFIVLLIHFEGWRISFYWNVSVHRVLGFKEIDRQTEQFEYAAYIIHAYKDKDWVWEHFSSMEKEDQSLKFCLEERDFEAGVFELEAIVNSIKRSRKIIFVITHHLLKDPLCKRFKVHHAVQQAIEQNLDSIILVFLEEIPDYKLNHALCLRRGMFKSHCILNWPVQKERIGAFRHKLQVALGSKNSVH
Method: as §1, §2

hTLR2 = target: T3, hTLR2 (Homo sapiens, UniProt O60603); type: cell-based
T3 construct: host or cells: HEK-293 (293/hTLR2-CD14, clone hTLR 2-luc)
Method: as §1, §2

hTLR2/6 = target: T4, hTLR2/6 (Homo sapiens, UniProt O60603+Q9Y2C9); type: cell-based
T4 construct: host or cells: HEK-293 (293/hTLR2/6, clone hTLR 2/6-luc)
Method: as §1, §2

[1] = tested on: R9F specific CD8+ T cells secreting IFN-γ; assay: In vivo ELISpot gamma interferon (IFN-γ) after immunisation with HPV16E7; conditions: C57BL/6 mice; HPV16E7 protein 10 μg subcutaneously day 0, 7, 14, alone or with NA fraction (25 μg) or NA-B2 fraction (0.4 μg); splenocytes 7 days after last injection; FIG. 2
Method: Animals model: SPF healthy female C57BL/6 mice were obtained from Charles River (Les Oncins, France). The animals were 6-weeks-old upon arrival. At the beginning of experimentation, they were 7-week-old. The animals were housed in a single, exclusive room, air-conditioned to provide a minimum of 11 air changes per hour. The temperature and relative humidity ranges were within 20° C. and 24° C. and 40 to 70% respectively. Lighting was controlled automatically to give a cycle of 12 hours of light and 12 hours of darkness. Specific pathogen free status was checked by regular control of sentinel animals. Throughout the study the animals had access ad libitum to sterilized diet type RM1 (Dietex France, Saint Gratien). Sterile water was provided ad libitum via bottles.
IFN-γ ELIspot assay is a functional test to determine the ability of in vivo primed T cells to secrete IFN-γ upon re-stimulation in vitro with a specific peptide.
Animals were injected 3 times at a one week interval (day 0; day 7; day 14), subcutaneously (at the base of the tail) with preparations as described in Table 4.
Animals were then sacrificed 7 days after the last injection and their splenocytes were used to determine the frequency of R9F specific CD8+ T cells secreting IFN-γ upon re-stimulation. […]

T1 sequence (O60602 21-858): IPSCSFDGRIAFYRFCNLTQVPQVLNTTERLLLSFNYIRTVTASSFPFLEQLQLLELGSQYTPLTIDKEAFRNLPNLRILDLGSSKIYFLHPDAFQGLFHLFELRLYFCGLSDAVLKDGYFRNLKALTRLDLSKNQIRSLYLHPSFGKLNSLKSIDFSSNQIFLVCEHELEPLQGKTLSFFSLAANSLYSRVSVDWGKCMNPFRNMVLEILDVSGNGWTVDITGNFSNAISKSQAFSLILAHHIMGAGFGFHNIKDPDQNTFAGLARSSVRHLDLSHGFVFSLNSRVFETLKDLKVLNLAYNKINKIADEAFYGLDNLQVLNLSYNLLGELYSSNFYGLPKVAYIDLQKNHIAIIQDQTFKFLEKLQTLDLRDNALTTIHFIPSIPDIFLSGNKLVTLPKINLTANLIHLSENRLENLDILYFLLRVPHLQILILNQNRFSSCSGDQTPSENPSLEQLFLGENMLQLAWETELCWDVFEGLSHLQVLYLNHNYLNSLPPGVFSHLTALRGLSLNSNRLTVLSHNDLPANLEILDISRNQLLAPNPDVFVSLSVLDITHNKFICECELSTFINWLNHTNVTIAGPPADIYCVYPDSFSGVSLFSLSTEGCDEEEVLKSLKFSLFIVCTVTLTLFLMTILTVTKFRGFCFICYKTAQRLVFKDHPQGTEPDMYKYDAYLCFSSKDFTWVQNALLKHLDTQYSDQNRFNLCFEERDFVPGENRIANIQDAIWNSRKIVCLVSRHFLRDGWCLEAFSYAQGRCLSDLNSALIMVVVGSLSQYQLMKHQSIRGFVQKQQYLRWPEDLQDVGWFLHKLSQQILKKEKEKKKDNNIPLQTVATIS
T4 sequence (O60603 21-784): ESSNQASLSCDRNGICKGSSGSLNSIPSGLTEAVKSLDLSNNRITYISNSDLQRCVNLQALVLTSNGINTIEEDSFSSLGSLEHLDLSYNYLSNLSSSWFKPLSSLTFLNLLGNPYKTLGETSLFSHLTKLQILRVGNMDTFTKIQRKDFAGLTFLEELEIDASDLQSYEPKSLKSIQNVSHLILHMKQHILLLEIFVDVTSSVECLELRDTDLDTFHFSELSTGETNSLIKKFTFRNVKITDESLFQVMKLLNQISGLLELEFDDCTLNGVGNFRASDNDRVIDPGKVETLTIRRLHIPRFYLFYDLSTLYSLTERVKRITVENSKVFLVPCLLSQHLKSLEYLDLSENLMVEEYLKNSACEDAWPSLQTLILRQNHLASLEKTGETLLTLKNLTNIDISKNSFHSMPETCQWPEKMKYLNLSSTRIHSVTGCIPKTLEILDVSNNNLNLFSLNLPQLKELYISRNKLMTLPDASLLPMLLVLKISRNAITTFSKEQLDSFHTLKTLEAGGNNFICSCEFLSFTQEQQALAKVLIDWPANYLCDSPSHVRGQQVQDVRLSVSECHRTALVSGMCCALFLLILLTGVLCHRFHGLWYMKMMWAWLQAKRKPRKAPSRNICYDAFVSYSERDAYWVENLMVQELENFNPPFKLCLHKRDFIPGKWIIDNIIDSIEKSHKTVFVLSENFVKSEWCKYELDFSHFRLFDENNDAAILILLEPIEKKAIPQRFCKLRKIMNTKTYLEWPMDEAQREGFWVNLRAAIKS
T4 sequence (Q9Y2C9 32-796): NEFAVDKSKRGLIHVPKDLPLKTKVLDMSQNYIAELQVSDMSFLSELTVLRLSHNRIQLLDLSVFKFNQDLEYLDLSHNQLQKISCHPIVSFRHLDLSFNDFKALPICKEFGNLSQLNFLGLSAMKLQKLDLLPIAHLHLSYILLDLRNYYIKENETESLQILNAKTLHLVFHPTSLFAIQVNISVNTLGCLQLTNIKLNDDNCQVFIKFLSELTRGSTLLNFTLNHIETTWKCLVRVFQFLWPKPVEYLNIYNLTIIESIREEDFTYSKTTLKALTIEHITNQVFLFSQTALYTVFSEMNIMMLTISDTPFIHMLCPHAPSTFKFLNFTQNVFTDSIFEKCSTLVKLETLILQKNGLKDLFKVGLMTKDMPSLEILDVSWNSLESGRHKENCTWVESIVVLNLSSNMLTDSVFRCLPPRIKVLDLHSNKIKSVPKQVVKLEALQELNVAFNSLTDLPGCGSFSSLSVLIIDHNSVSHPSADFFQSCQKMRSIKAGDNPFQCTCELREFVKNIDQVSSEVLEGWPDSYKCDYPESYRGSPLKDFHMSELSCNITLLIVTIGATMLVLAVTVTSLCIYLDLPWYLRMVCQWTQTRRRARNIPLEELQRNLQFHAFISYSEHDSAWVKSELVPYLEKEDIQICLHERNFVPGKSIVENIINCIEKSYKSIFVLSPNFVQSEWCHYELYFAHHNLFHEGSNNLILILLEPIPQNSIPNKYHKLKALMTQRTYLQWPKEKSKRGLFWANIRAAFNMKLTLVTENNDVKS
T3 sequence (O60603 21-784): as the sequence (O60603 21-784) above
T3 sequence (Q9Y2C9 32-796 partner): as the sequence (Q9Y2C9 32-796) above

For Flagellin, the Fold induction max/min (hTLR5) was 392 and the “Ligand EC50” value (hTLR5; hTLR 5-luc clone, control TLR ligand) was “Flagellin 66.2ng/ml”.

In the case of Poly(I:C), the Fold induction max/min (hTLR3) is reported as 62 and the “Ligand EC50” value (hTLR3; hTLR 3-luc clone, control TLR ligand) is reported as “Poly(I:C) 1.8ng/ml”.

CCCCCCCCCCCCCCCC(=O)OCC(CSC[C@H](N)C(=O)NCC(=O)N[C@@H](CC(=O)O)C(=O)N1CCC[C@H]1C(=O)N[C@@H](CCCCN)C(=O)N[C@@H](Cc1c[nH]cn1)C(=O)N1CCC[C@H]1C(=O)N[C@@H](CCCCN)C(=O)N[C@@H](CO)C(=O)N[C@@H](Cc1ccccc1)C(=O)O)OC(=O)CCCCCCCCCCCCCCC (stereo partly shown) [FSL-1] (H-C(X1)GDPKHPKSF-OH; N-terminus and C-terminus assumed) was tested, and the fold induction (hTLR2) was 157 and the fold induction (hTLR2/6) was 140.

In the case of HPV16E7: HPV16 E7 protein antigen, the “Level of R9F specific T cells secreting IFN-γ (ELISpot)” value [1] is reported as “no R9F specific (HPV16E7 protein) T cells secreting IFN-γ”.
